Usually MIC stands for the lowest concentration that inhibits growth of the organism. As a reminder, the zone of inhibition is the extent of the growth-free halo in a diffusion test.

The subject of one assay is Staphylococcus aureus. Kind of assay: Disk diffusion zone of inhibition. To be noted: for Zone of Inhibition, S. aureus: disks with 1-5 μg compound/disk, positive control 5 μg Novobiocin, 22 hours at 37° C., LB agar; for Antibacterial activity against S. aureus, in words: disk diffusion, at the concentration tested. (In general: In agar diffusion tests the substance spreads into inoculated agar from a disc or well.)

The subject of the next assay is Escherichia coli. Kind of assay: Disk diffusion zone of inhibition. To be noted: for Zone of Inhibition, E. coli: disks with 1-5 μg compound/disk, positive control 30 μg Tetracycline, 22 hours at 37° C., LB agar; for Antibacterial activity against E. coli, in words: disk diffusion, at the concentration tested.
In another assay the test system is S. aureus. Nature of the assay: Minimum Inhibitory Concentration (MIC) determination, 96-well plates, OD600. To be noted: for MIC, S. aureus: 24 hours at 37° C., compounds tested at 0-5 μg/mL in duplicate, Kanamycin 0-4 μg/mL.
Another assay concerns E. coli. Described as above. To be noted: for MIC, E. coli: 24 hours at 37° C., compounds tested at 0-40 μg/mL in duplicate, Kanamycin 0-4 μg/mL.
Assay [1] deals with Vesicular Stomatitis Virus (Indiana strain). The class given is cell-based.

SMILES strings stand for the structures. Values after ≈ are worked out from the molar mass of the structure shown.

In the case of `COC(OC)c1cc[c]([Bi]([c]2ccccc2)[c]2ccccc2)cc1` [Compound 1], in the assay with Staphylococcus aureus, the “Zone of Inhibition, S. aureus” value is on record as 0 cm. Besides, the “Zone of Inhibition, E. coli” value in the assay on Escherichia coli was 0 cm.
`COc1cc[c]([Bi]([c]2c(C)cc(C)cc2C)[c]2c(C)cc(C)cc2C)cc1` [Compound 2]: in the assay with Staphylococcus aureus, the “Antibacterial activity against S. aureus, in words” value is reported as “showed antibacterial activity against S. aureus” and the “Zone of Inhibition, S. aureus” value stood at 1 cm. For the same compound, in the assay with Escherichia coli, the “Antibacterial activity against E. coli, in words” value is given as “little activity against E. coli” and the “Zone of Inhibition, E. coli” value was determined as 0 cm.
The corresponding values for `COc1cc[c]([Bi]([c]2ccccc2)[c]2ccccc2)cc1` [Compound 3] are “showed antibacterial activity against S. aureus”, 1 cm, “little activity against E. coli” and 0 cm.
Take `COC(=O)c1cc[c]([Bi]([c]2ccccc2)[c]2ccccc2)cc1` [Compound 4]: the “Zone of Inhibition, S. aureus” value with Staphylococcus aureus stood at 0 cm. In the assay on Escherichia coli, the “Zone of Inhibition, E. coli” value is 0 cm.
Consider `Cc1cc(C)[c]([Bi]([c]2ccccc2)[c]2ccccc2)c(C)c1` [Compound 5], for which the “MIC, S. aureus” value with S. aureus turned out to be 0.625 µg/mL. The “MIC, E. coli” value in the assay on E. coli came to 40 µg/mL. Further, in the assay with Staphylococcus aureus, the “Antibacterial activity against S. aureus, in words” value is “most effective against S. aureus” and the “Zone of Inhibition, S. aureus” value came to 1.6 cm. Also, in the assay on Escherichia coli, the “Antibacterial activity against E. coli, in words” value was “weaker antimicrobial activity against E. coli” and the “Zone of Inhibition, E. coli” value is recorded as 0 cm.
Take `N#Cc1cc[c]([Bi]([c]2ccccc2)[c]2ccccc2)cc1` [Compound 6]: the “Zone of Inhibition, S. aureus” value in the assay on Staphylococcus aureus turned out to be 0 cm. Also, the “Zone of Inhibition, E. coli” value with Escherichia coli came out at 0 cm.
In the case of `COc1cc[c]([Bi]([c]2ccccc2)[c]2ccc(OC)cc2)cc1` [Compound 7], in the assay with Staphylococcus aureus, the “Antibacterial activity against S. aureus, in words” value is recorded as “showed antibacterial activity against S. aureus” and the “Zone of Inhibition, S. aureus” value is on record as 1.1 cm. Further, in the assay with Escherichia coli, the “Antibacterial activity against E. coli, in words” value is given as “little activity against E. coli” and the “Zone of Inhibition, E. coli” value is 0 cm.
In the same order, the values of `Cc1cc(C)[c]([Bi]([c]2ccccc2)[c]2c(C)cc(C)cc2C)c(C)c1` [Compound 8] are “showed antibacterial activity against S. aureus”, 1 cm, “little activity against E. coli” and 0 cm.
The corresponding values for `COc1cc[c]([Bi]([c]2ccc(C#N)cc2)[c]2ccc(C#N)cc2)cc1` [Compound 9] are “showed antibacterial activity against S. aureus”, 1 cm, “little activity against E. coli” and 0 cm.
In the same order, the values of `Cc1cc[c]([Bi]([c]2ccc(C#N)cc2)[c]2ccc(C#N)cc2)cc1` [Compound 10] are “showed antibacterial activity against S. aureus”, 0.9 cm, “little activity against E. coli” and 0 cm.
Consider `Cc1cc[c]([Bi]([c]2c(C)cc(C)cc2C)[c]2c(C)cc(C)cc2C)cc1` [Compound 11], for which, in the assay with Staphylococcus aureus, the “Antibacterial activity against S. aureus, in words” value was “showed antibacterial activity against S. aureus” and the “Zone of Inhibition, S. aureus” value is recorded as 0.8 cm. Moreover, in the assay on Escherichia coli, the “Antibacterial activity against E. coli, in words” value is “little activity against E. coli” and the “Zone of Inhibition, E. coli” value is 0 cm.
Take `COc1cc[c]([Bi]([c]2ccc(C)cc2)[c]2ccc(OC)cc2)cc1` [Compound 12]: in the assay on Staphylococcus aureus, the “Antibacterial activity against S. aureus, in words” value is recorded as “showed antibacterial activity against S. aureus” and the “Zone of Inhibition, S. aureus” value is given as 1 cm. In the assay with Escherichia coli, the “Antibacterial activity against E. coli, in words” value is listed as “little activity against E. coli” and the “Zone of Inhibition, E. coli” value is reported as 0 cm.
The corresponding values for `Cc1cc(C)[c]([Bi]([c]2ccc(C#N)cc2)[c]2c(C)cc(C)cc2C)c(C)c1` [Compound 13] are “showed antibacterial activity against S. aureus”, 0.9 cm, “little activity against E. coli” and 0 cm.
As for `Cc1ccc(S(=O)(=O)[O][Bi]([c]2ccccc2)[c]2ccccc2)cc1` [Compound 14], the “MIC, S. aureus” value against S. aureus turned out to be 0.625 µg/mL. Further, in the assay on E. coli, the “MIC, E. coli” value worked out at 10 µg/mL. For the same compound, the “% Plaque Reduction” value in assay [1] was 29.7%. For the same compound, in the assay with Staphylococcus aureus, the “Antibacterial activity against S. aureus, in words” value is reported as “most effective against S. aureus” and the “Zone of Inhibition, S. aureus” value is 2.1 cm. In the assay on Escherichia coli, the “Antibacterial activity against E. coli, in words” value is “weaker antimicrobial activity against E. coli” and the “Zone of Inhibition, E. coli” value is listed as 1.3 cm.
As to `Cc1ccc(S(=O)(=O)[O][Bi]([O]S(=O)(=O)c2ccc(C)cc2)[c]2ccccc2)cc1` [Compound 16], the “MIC, S. aureus” value in the assay with S. aureus was 0.625 µg/mL. Also, the “MIC, E. coli” value against E. coli stood at 20 µg/mL. In assay [1], the “% Plaque Reduction” value came out at 81.8%. Moreover, the “Zone of Inhibition, S. aureus” value in the assay with Staphylococcus aureus is 1.8 cm. Also, in the assay on Escherichia coli, the “Zone of Inhibition, E. coli” value is recorded as 1 cm.
Consider `[I][Bi]([c]1ccccc1)[c]1ccccc1` [Compound 18], for which the “MIC, S. aureus” value against S. aureus was 0.625 µg/mL. Moreover, in the assay with E. coli, the “MIC, E. coli” value came out at 10 µg/mL. Further, the “% Plaque Reduction” value in assay [1] turned out to be 99.95%. Further, in the assay with Staphylococcus aureus, the “Antibacterial activity against S. aureus, in words” value is on record as “most effective against S. aureus” and the “Zone of Inhibition, S. aureus” value is recorded as 2.2 cm. In the assay on Escherichia coli, the “Antibacterial activity against E. coli, in words” value is listed as “weaker antimicrobial activity against E. coli” and the “Zone of Inhibition, E. coli” value is given as 1.3 cm.
As for `Cc1cc[c]([Bi]([O]S(=O)(=O)c2ccc(C)cc2)[c]2ccc(C)cc2)cc1` [Compound 19], the “MIC, S. aureus” value in the assay with S. aureus is 2.5 µg/mL. The “MIC, E. coli” value against E. coli was “No inhibition”. Further, the “% Plaque Reduction” value in assay [1] amounted to 76.6%. In the assay on Staphylococcus aureus, the “Antibacterial activity against S. aureus, in words” value is “most effective against S. aureus” and the “Zone of Inhibition, S. aureus” value turned out to be 1.8 cm. In the assay on Escherichia coli, the “Antibacterial activity against E. coli, in words” value is “weaker antimicrobial activity against E. coli” and the “Zone of Inhibition, E. coli” value turned out to be 0.8 cm.
With `Cc1cc[c]([Bi]([O]S(=O)(=O)c2ccc(C)cc2)[O]S(=O)(=O)c2ccc(C)cc2)cc1` [Compound 21], the “MIC, S. aureus” value with S. aureus turned out to be 1.25 μg/mL L. Moreover, the “MIC, E. coli” value in the assay on E. coli was 40 µg/mL. Also, the “% Plaque Reduction” value in assay [1] stood at 38.7%. Further, in the assay on Staphylococcus aureus, the “Antibacterial activity against S. aureus, in words” value was “most effective against S. aureus” and the “Zone of Inhibition, S. aureus” value was determined as 1.5 cm. For the same compound, in the assay with Escherichia coli, the “Antibacterial activity against E. coli, in words” value is on record as “weaker antimicrobial activity against E. coli” and the “Zone of Inhibition, E. coli” value was 1 cm.
Regarding `Cc1cc[c]([Bi]([O]S(=O)(=O)c2ccc(C)cc2)[O]S(=O)(=O)c2ccc(C)cc2)cc1` [Compound 22], in the assay with Escherichia coli, the “Zone of Inhibition, E. coli” value was found to be 0 cm.
On to `Cc1cc(C)[c]([Bi]([I])[c]2c(C)cc(C)cc2C)c(C)c1` [Compound 23], for which, in the assay with Staphylococcus aureus, the “Antibacterial activity against S. aureus, in words” value is “most effective against S. aureus” and the “Zone of Inhibition, S. aureus” value is given as 0.9-1.9 cm. In the assay with Escherichia coli, the “Antibacterial activity against E. coli, in words” value was “weaker antimicrobial activity against E. coli” and the “Zone of Inhibition, E. coli” value stood at 0.6 cm.
With `NC[C@H]1O[C@H](O[C@H]2[C@H](O)[C@@H](O[C@H]3O[C@H](CO)[C@@H](O)[C@H](N)[C@H]3O)[C@H](N)C[C@@H]2N)[C@H](O)[C@@H](O)[C@@H]1O` [Kanamycin, reference compound], the MIC in the assay on S. aureus (Staphylococcus aureus, 24 h, read-out: MIC, S. aureus) turned out to be 0.0625 µg/mL (≈ 0.129 µM); in the assay on E. coli (Escherichia coli, 24 h, read-out: MIC, E. coli) it was 0.0625 µg/mL (≈ 0.129 µM).
Consider `CO[C@@H]1[C@@H](OC(N)=O)[C@@H](O)[C@H](Oc2ccc3c(O)c(NC(=O)c4ccc(O)c(CC=C(C)C)c4)c(=O)oc3c2C)OC1(C)C` [Novobiocin, reference compound], for which the zone of inhibition at 5 µg/disc in the assay on Staphylococcus aureus (Staphylococcus aureus, 22 h, read-out: Zone of Inhibition, S. aureus) lay within 20 to 25 mm.
Take `CN(C)[C@@H]1C(O)=C(C(N)=O)C(=O)[C@@]2(O)C(O)=C3C(=O)c4c(O)cccc4[C@@](C)(O)[C@H]3C[C@@H]12` [Tetracycline, reference compound]: the zone of inhibition at 30 µg/disc with Escherichia coli (Escherichia coli, 22 h, read-out: Zone of Inhibition, E. coli) was in the range of 18 to 25 mm.

Source of the values: patent publication US20220411449A1, “Method for Preparing Heteroleptic Triarylbismuthanes and Compounds Produced by the Same” (UNIVERSITY OF HAWAII, priority 2019, published 2022).
